From patent publication US7148254B2, “2-Phenylbenzofuran derivatives, a process for preparing them, and their use” (Sanofi-Aventis Deutschland GmbH, priority 2003, dated 2006)

Columns and labels:
[1] = Physicochemical properties: solubility; conditions: organic solvents
[2] = target: N-acetylglucosamine-1-phosphate uridyltransferase (GlmU) (Escherichia coli, UniProt P0ACC7); experiment: GlmU inhibition, biochemical test (384-plate format, DTNB, absorption at 405 nm); set-up: species or system bacterial; conditions: 60 minutes of incubation at 30° C.; read-out: inhibition constant, IC50, inhibitory effect on the enzyme GlmU
Chain of N-acetylglucosamine-1-phosphate uridyltransferase (GlmU) (P0ACC7 whole entry): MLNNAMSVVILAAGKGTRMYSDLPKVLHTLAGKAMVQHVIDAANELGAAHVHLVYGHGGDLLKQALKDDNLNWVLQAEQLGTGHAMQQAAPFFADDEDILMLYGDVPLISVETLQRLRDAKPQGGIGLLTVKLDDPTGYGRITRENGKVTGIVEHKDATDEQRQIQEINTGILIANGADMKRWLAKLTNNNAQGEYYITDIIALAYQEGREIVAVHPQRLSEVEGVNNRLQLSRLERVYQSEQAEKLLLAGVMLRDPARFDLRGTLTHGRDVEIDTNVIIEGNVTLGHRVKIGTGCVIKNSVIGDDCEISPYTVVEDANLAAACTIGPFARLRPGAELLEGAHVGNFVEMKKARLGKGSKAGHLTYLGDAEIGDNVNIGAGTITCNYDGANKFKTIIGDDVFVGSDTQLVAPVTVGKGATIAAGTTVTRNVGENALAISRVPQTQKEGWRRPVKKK
Procedure: The inhibition of the GlmU can be determined in a biochemical test using the following method:
The assay was carried out in a 384-plate format. The reaction volume was 40 μl per test. The reaction mixture contained 10 μl of test substance and 15 μl of substrate solution consisting of acetylCoA and D-glucosamine-1-phosphate. The enzyme reaction was started by adding 15 μl of GlmU enzyme solution. After 60 minutes of incubation at 30° C., the reaction was stopped by adding 10 μl of developer reagent (DTNB dissolved in guanidine). The plates were then centrifuged (1 min, 1000 rpm) and stored for a further 45 minutes at room temperature before the absorption was read at 405 nm in a photometer. In order to be able to calculate the inhibitory activity of the test compounds, positive controls (signal with GlmU) and negative controls (signal without GlmU) were included on each plate. In order to exclude falsely positive samples, which could be caused by nonspecific substance effects (e.g. color), blank plates, which contained the substances but no GlmU, were included in parallel with the test plates. After correction for the blanks, the inhibitory activities of the substances were calculated in accordance with the following formula: Inhibition(%)=100×[1−(OD405 nm substance/OD405 nm positive control)]

[3] = Physicochemical properties: stability

For Cc1c(O)c(O)c(O)c(C=O)c1-c1cc2c(C=O)c(C)c(O)c(O)c2o1 [(II)], the solubility [1] was “soluble in medium-polar and polar organic solvents”, the IC50 [2] was 1 µM and the stability ([3]; neutral and mildly acid medium) was “Stable in neutral and mildly acid medium”. For the same molecule, the stability ([3]; strongly acidic and alkaline solutions, under the influence of oxygen) was “unstable in strongly acidic and alkaline solutions and under the influence of oxygen”.
